Experimental data from BindingDB's records for doi:10.1021/jm020335m (Abbott Laboratories, 2003).

What was measured:
[1] = Inhibition of concanavalin A stimulated rat splenocyte proliferation
[2] = Inhibition of concanavalin A stimulated T-cell proliferation in human PBMCs

SMILES	EC50 [1] [µM]	EC50 [2] [µM]
C=CCC1Oc2ccc(O)c(OC)c2-c2ccc3c(c21)C(C)=CC(C)(C)N3 (configuration not stated) [5-Allyl-10-methoxy-2,2,4-trimethyl-2,5-dihydro-1H-6-oxa-1-aza-chrysen-9-ol]	0.078	0.145
C=CCC1Oc2cccc(OC)c2-c2ccc3c(c21)C(C)=CC(C)(C)N3 (configuration not stated) [5-Allyl-10-methoxy-2,2,4-trimethyl-2,5-dihydro-1H-6-oxa-1-aza-chrysene]	0.048	0.78
C=CCC1Oc2cccc(NC)c2-c2ccc3c(c21)C(C)=CC(C)(C)N3 (configuration not stated) [(5-Allyl-2,2,4-trimethyl-2,5-dihydro-1H-6-oxa-1-aza-chrysen-10-yl)-methyl-amine]	0.048	0.418
C=CCC1Oc2cccc(OC(F)F)c2-c2ccc3c(c21)C(C)=CC(C)(C)N3 (configuration not stated) [5-Allyl-10-difluoromethoxy-2,2,4-trimethyl-2,5-dihydro-1H-6-oxa-1-aza-chrysene]	0.085	0.563
C=CCC1Oc2cccc(C=C)c2-c2ccc3c(c21)C(C)=CC(C)(C)N3 (configuration not stated) [5-Allyl-2,2,4-trimethyl-10-vinyl-2,5-dihydro-1H-6-oxa-1-aza-chrysene]	0.09	> 1
C=CCC1Oc2cccc(Cl)c2-c2ccc3c(c21)C(C)=CC(C)(C)N3 (configuration not stated) [5-Allyl-10-chloro-2,2,4-trimethyl-2,5-dihydro-1H-6-oxa-1-aza-chrysene]	> 1	0.44
